In patent US11827628B2, “Compositions and methods for inhibition of the JAK pathway” (Rigel Pharmaceuticals, Inc., priority 2005, dated 2023):

Tested on: Primary human T-cells
Experiment: Primary Human T-Cell Proliferation Assay Stimulated with IL-2 (CellTiter-Glo)
Format: cell-based
Conditions: Homo sapiens, T-cell, primary human T-cells stimulated with IL-2, proliferation; read-out: IC50, Example 42
In short: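 IC50 derived from CellTiter-Glo ATP signal after 72 hours of IL-2-driven proliferation at 37° C. Cells: primary human T-cells from blood, stimulated beforehand 3-4 days on anti-CD3/anti-CD28 with IL-2, then rested from IL-2 before compound exposure in duplicate; IL-2-free wells served as unstimulated control.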

N#CCN1C(=O)CSc2ccc(Nc3nc(Nc4ccc(S(N)(=O)=O)cc4)ncc3F)cc21 [Compound V-11, N2-(4-Aminosulphonylphenyl)-5-fluoro-N4-(3-oxo-4-cyanomethyl-benzo[1,4]thiazin-6-yl)-2,4-pyrimidinediamine] gave an IC50 of 795 nM.

Work on NS(=O)(=O)c1cccc(Nc2ncc(F)c(Nc3ccc(C(F)(F)F)cc3)n2)c1 [VI-51, N2-(3-Aminosulfonylphenyl)-5-fluoro-N4-(4-trifluoromethylphenyl)-2,4-pyrimidinediamine] yielded an IC50 of 547 nM.

With Cc1cc(Nc2ncc(F)c(Nc3ccc(OC(F)(F)F)c(Cl)c3)n2)cc(S(N)(=O)=O)c1Cl [VI-18, N2-(3-Aminosulfonyl-4-chloro-5-methylphenyl)-N4-(3-chloro-4-trifluoromethoxyphenyl)-5-fluoro-2,4-pyrimidinediamine] the IC50 was 4370 nM.

COc1ccc(Nc2nc(Nc3cccc(S(N)(=O)=O)c3)ncc2F)cc1Cl [VI-107, N2-(3-Aminosulfonylphenyl)-5-fluoro-N4-(4-methoxy-3-chlorophenyl]-2,4-pyrimidinediamine] was tested, and the IC50 was 74.1 nM.

With Cc1ccc(Nc2ncc(F)c(Nc3cccc(-c4cnco4)c3)n2)cc1S(N)(=O)=O [IV-2, N2-(3-Aminosulfonyl-4-methylphenyl)-5-fluoro-N4-[3-(1,3-oxazol-5-yl)phenyl]-2,4-pyrimidinediamine] the IC50 was 362 nM.

C#CCOc1ccc(Nc2nc(Nc3ccc(Cl)c(S(N)(=O)=O)c3)ncc2F)cc1 [VI-55, N2-(3-Aminosulfonyl-4-chlorophenyl)-5-fluoro-N4-[4-(prop-2-ynyloxy)phenyl]-2,4-pyrimidinediamine] was tested, and the IC50 was 625 nM.

Compound C#CCn1ccc2cc(Nc3nc(Nc4cccc(S(N)(=O)=O)c4)ncc3F)ccc21 [IX-2, N2-(3-Aminosulfonylphenyl)-5-fluoro-N4-[1-(propyn-3-yl)indol-5-yl]-2,4-pyrimidinediamine] has an IC50 of 282 nM.

Cc1cnc(Nc2ccc(S(N)(=O)=O)cc2)nc1Nc1ccc2c(c1)NC(=O)CO2 [VII-31, N2-(4-Aminosulphonylphenyl)-5-methyl-N4-(3-oxo-benz[1,4]oxazin-6-yl)-2,4-pyrimidinediamine] was tested, and the IC50 was 174 nM.

With Cc1ccc(Nc2ncc(F)c(Nc3ccc(C(=O)N4CCSCC4)cc3)n2)cc1S(N)(=O)=O [IX-35, N2-(3-Aminosulfonyl-4-methylphenyl)-5-fluoro-N4-[4-(4-thiomorpholinyl)carbonylphenyl]-2,4-pyrimidinediamine] the IC50 was 866 nM.

C#CCOC(=O)NCc1ccc(Nc2nc(Nc3cccc(S(N)(=O)=O)c3)ncc2F)cc1 [VI-74, N2-(3-Aminosulfonylphenyl)-5-fluoro-N4-{4-[(prop-2-ynyloxy)carbonylaminomethyl]phenyl}-2,4-pyrimidinediamine] showed an IC50 of 348 nM.

COc1cc(Nc2nc(Nc3ccc(C)c(S(N)(=O)=O)c3)ncc2F)ccc1Cl [VI-5, N2-(3-Aminosulfonyl-4-methylphenyl)-N4-(4-chloro-3-methoxyphenyl)-5-fluoro-2,4-pyrimidinediamine] gave an IC50 of 718 nM.

For Cc1ccc(Nc2ncc(F)c(Nc3cccc4c(CC#N)c[nH]c34)n2)cc1S(N)(=O)=O [IX-16, N2-(3-Aminosulfonyl-4-methylphenyl)-N4-(3-cyanomethyl-1H-indol-7-yl)-5-fluoro-2,4-pyrimidinediamine], the IC50 was 223 nM.

Cc1ccc(Nc2ncc(F)c(Nc3ccc(C)c(S(N)(=O)=O)c3)n2)cc1S(N)(=O)=O [VI-114, N2,N4-Bis-(3-aminosulfonyl-4-methylphenyl)-5-fluoro-2,4-pyrimidinediamine] gave an IC50 of 2240 nM.

In the case of N#CCc1c[nH]c2cc(Nc3nc(Nc4cccc(S(N)(=O)=O)c4)ncc3F)ccc12 [IX-12, N2-(3-Aminosulfonylphenyl)-N4-(3-cyanomethyl-1H-indol-6-yl)-5-fluoro-2,4-pyrimidinediamine], the IC50 is reported as 117 nM.

Work on Cc1ccc(Nc2ncc(F)c(Nc3ccc(-c4cnco4)cc3)n2)cc1S(N)(=O)=O [IV-6, N2-(3-Aminosulfonyl-4-methylphenyl)-5-fluoro-N4-[4-(1,3-oxazol-5-yl)phenyl]-2,4-pyrimidinediamine] yielded an IC50 of 132 nM.

N#CCc1c[nH]c2c(Nc3nc(Nc4cccc(S(N)(=O)=O)c4)ncc3F)cccc12 [IX-15, N2-(3-Aminosulfonylphenyl)-N4-(3-cyanomethyl-1H-indol-7-yl)-5-fluoro-2,4-pyrimidinediamine] was tested, and the IC50 was 157 nM.

Compound CNC(=O)OCc1cccc(Nc2nc(Nc3ccc(C)c(S(N)(=O)=O)c3)ncc2F)c1 [VI-49, N2-(3-Aminosulfonyl-4-methylphenyl)-5-fluoro-N4-[3-(methylaminocarbonyloxymethyl)phenyl]-2,4-pyrimidinediamine] has an IC50 of 1260 nM.

N#CCN1C(=O)COc2ccc(Nc3nc(Nc4ccc(S(N)(=O)=O)cc4)ncc3F)cc21 [Compound V-6, N2-(4-Aminosulphonylphenyl)-5-fluoro-N4-(3-oxo-4-cyanomethyl-benz[1,4]oxazin-6-yl]-2,4-pyrimidinediamine] showed an IC50 of 70.8 nM.

Compound C#CCOc1ccc(Nc2nc(Nc3ccc(C(C)C)c(S(N)(=O)=O)c3)ncc2F)cc1 [VI-63, N2-[3-Aminosulfonyl-4-(2-propyl)phenyl]-5-fluoro-N4-[4-(prop-2-ynyloxy)phenyl]-2,4-pyrimidinediamine] has an IC50 of 363 nM.

Cc1ccc(Nc2ncc(F)c(Nc3ccc4c(CC#N)c[nH]c4c3)n2)cc1S(N)(=O)=O [IX-11, N2-(3-Aminosulfonyl-4-methylphenyl)-N4-(3-cyanomethyl-1H-indol-6-yl)-5-fluoro-2,4-pyrimidinediamine] was tested, and the IC50 was 215 nM.

Work on NS(=O)(=O)c1ccc(Nc2ncc(F)c(NCCc3ccc(-n4ccnc4)cc3)n2)cc1 [III-90, N2-(4-Aminosulfonylphenyl)-5-fluoro-N4-[4-(1-imidazolyl)phenethyl]-2,4-pyrimidinediamine] yielded an IC50 of 468 nM.

For C#CCOc1ccc(Nc2nc(Nc3ccc(N4CCN(C)CC4)c(S(N)(=O)=O)c3)ncc2F)cc1 [VI-70, N2-[3-Aminosulfonyl-4-(1-methylpiperazin-4-yl)phenyl]-5-fluoro-N4-[4-(prop-2-ynyloxy)phenyl]-2,4-pyrimidinediamine], the IC50 was 311 nM.

NS(=O)(=O)c1cccc(Nc2ncc(F)c(Nc3ccc(Cl)c(Cl)c3)n2)c1 [VI-110, N2-(3-Aminosulfonylphenyl)-N4-(3,4-dichlorophenyl)-5-fluoro-2,4-pyrimidinediamine] showed an IC50 of 345 nM.

For Cc1ccc(Nc2ncc(F)c(Nc3ccc(C(F)(F)F)cc3)n2)cc1S(N)(=O)=O [VI-50, N2-(3-Aminosulfonyl-4-methylphenyl)-5-fluoro-N4-(4-trifluoromethylphenyl)-2,4-pyrimidinediamine], the IC50 was 944 nM.

In the case of NS(=O)(=O)c1cccc(Nc2ncc(F)c(Nc3cccc(-c4cnco4)c3)n2)c1 [IV-1, N2-(3-Aminosulfonylphenyl)-5-fluoro-N4-[3-(1,3-oxazol-5-yl)phenyl]-2,4-pyrimidinediamine], the IC50 is reported as 287 nM.

Cc1cnc(Nc2cccc(S(N)(=O)=O)c2)nc1Nc1ccc2c(c1)NC(=O)CO2 [VII-32, N2-(3-Aminosulphonylphenyl)-5-methyl-N4-(3-oxo-benz[1,4]oxazin-6-yl)-2,4-pyrimidinediamine] was tested, and the IC50 was 32.1 nM.

With CN1C(=O)C(C)(C)S(=O)(=O)c2ccc(Nc3nc(Nc4ccc(S(N)(=O)=O)cc4)ncc3F)cc21 [VII-12, N2-(4-Aminosulphonylphenyl)-5-fluoro-N4-(2,2,4-trimethyl-1,1,3-trioxo-benzo[1,4]thiazin-6-yl)-2,4-pyrimidinediamine] the IC50 was 6690 nM.

NS(=O)(=O)c1cccc(Nc2ncc(F)c(Nc3ccc(C(=O)N4CCSCC4)cc3)n2)c1 [IX-34, N2-(3-Aminosulfonylphenyl)-5-fluoro-N4-[4-(4-thiomorpholinyl)carbonylphenyl]-2,4-pyrimidinediamine] gave an IC50 of 576 nM.

NS(=O)(=O)c1cccc(Nc2ncc(F)c(Nc3ccc4sccc4c3)n2)c1 [VII-58, N2-(3-Aminosulfonylphenyl)-N4-(benzothiophen-5-yl)-5-fluoro-2,4-pyrimidinediamine] showed an IC50 of 265 nM.

NC(=O)c1cc2cc(Nc3nc(Nc4cccc(S(N)(=O)=O)c4)ncc3F)ccc2o1 [VII-54, N2-(3-Aminosulfonylphenyl)-N4-(2-aminocarbonylbenzofurane-5-yl)-5-fluoro-2,4-pyrimidinediamine] gave an IC50 of 596 nM.

COc1ccc(CN2C(=O)C(C)Sc3ccc(Nc4nc(Nc5ccc(S(N)(=O)=O)cc5)ncc4F)cc32)cc1 (racemic) [Compound V-10, (R/S)-N2-(4-Aminosulphonylphenyl)-5-fluoro-N4-[2-methyl-3-oxo-4-(4-methoxybenzyl)-benzo[1,4]thiazin-6-yl]-2,4-pyrimidinediamine] showed an IC50 of 8270 nM.

Cc1cnc(Nc2cccc(S(N)(=O)=O)c2)nc1Nc1ccc2c(c1)N(C)C(=O)CS2 [VII-35, N2-(3-Aminosulphonylphenyl)-5-methyl-N4-(4-methyl-3-oxo-benzo[1,4]thiazin-6-yl)-2,4-pyrimidinediamine] showed an IC50 of 46.1 nM.

COc1ccc(Nc2nc(Nc3cc(C)c(F)c(S(N)(=O)=O)c3)ncc2F)cc1Cl [VI-15, N2-(3-Aminosulfonyl-4-fluoro-5-methylphenyl)-N4-(3-chloro-4-methoxyphenyl)-5-fluoro-2,4-pyrimidinediamine] was tested, and the IC50 was 469 nM.

Cc1ccc(Nc2ncc(F)c(Nc3cccc4cccnc34)n2)cc1S(N)(=O)=O [VII-77, N2-(3-Aminosulfonyl-4-methylphenyl)-5-fluoro-N4-(quinolin-8-yl)-2,4-pyrimidinediamine] showed an IC50 of 1780 nM.

Work on CN1C(=O)CSc2ccc(Nc3nc(Nc4ccc(S(N)(=O)=O)cc4)ncc3F)cc21 [VII-48, N2-(4-Aminosulfonylphenyl)-5-fluoro-N4-(4-methyl-3-oxo-benz[1,4]thiazin-6-yl)-2,4-pyrimidinediamine] yielded an IC50 of 336 nM.
